Tested on: TNFα release from human peripheral blood mononuclear cells
Experiment: Inhibition of LPS-stimulated TNFα release from human peripheral blood mononuclear cells (TNFα screen)
Format: cell-based
Conditions: LPS-stimulated human PBMC, 18 hours incubation, TNFα in supernatant by ELISA
Experimental: Venous blood is collected from healthy volunteers and the mononuclear cells purified by centrifugation through Histopaque (Ficoll) cushions. TNFα production from these cells is stimulated by addition of lipopolysaccharide. After 18 hours incubation in the presence of LPS, the cell supernatant is removed and the concentration of TNFα in the supernatant determined by ELISA. Addition of PDE4 inhibitors reduces the amount of TNFα produced. An IC50 is determined which is equal to the concentration of compound that gives 50% inhibition of TNFα production as compared to the LPS stimulated control wells.

Row | Molecule | IC50 [nM]
1 | CSc1cccc(Oc2ncc(F)cc2C(=O)N[C@H]2CC[C@@H](NC(=O)c3cc4ccccn4n3)CC2)c1 [Example 1, Syn-Pyrazolo[1,5-a]pyridine-2-carboxylic acid(4-{[5-fluoro-2-(3-methylsulfanyl-phenoxy) -pyridine-3-carbonyl]-amino}-cyclohexyl)-amide] | 0.1
2 | CSc1cccc(Oc2ncc(F)cc2C(=O)N[C@H]2CC[C@@H](NC(=O)c3cccn4ccnc34)CC2)c1 [Example 6, Syn-Imidazo[1,2-a]pyridine-8-carboxylic acid(4-{[5-fluoro-2-(3-methylsulfanyl-phenoxy) -pyridine-3-carbonyl]-amino}-cyclohexyl)-amide] | 0.02
3 | CSc1cccc(Oc2ncc(F)cc2C(=O)N[C@H]2CC[C@@H](NC(=O)c3cccc4nn[nH]c34)CC2)c1 [Example 7, Syn-3H-Benzotriazole-4-carboxylic acid(4-{[5-fluoro-2-(3-methylsulfanyl-Phenoxy) -pyridine-3-carbonyl]-amino}-cyclohexyl)-amide] | 0.4
4 | CSc1cccc(Oc2ncc(F)cc2C(=O)N[C@H]2CC[C@@H](NC(=O)c3cccc4cccnc34)CC2)c1 [Example 8, Syn-Quinoline-8-carboxylic acid(4-{[5-fluoro-2-(3-methylsulfanyl-phenoxy) -pyridine-3-carbonyl]-amino}-cyclohexyl)-amide] | 0.25
5 | CSc1cccc(Oc2ncc(F)cc2C(=O)N[C@H]2CC[C@@H](NC(=O)c3cccc4cc(O)cnc34)CC2)c1 [Example 9, Syn-3-Hydroxy-quinoline-8-carboxylic acid(4-{[5-fluoro-2-(3-methylsulfanyl-phenoxy) -pyridine-3-carbonyl]-amino}-cyclohexyl)-amide] | 0.15
6 | CSc1cccc(Oc2ncc(F)cc2C(=O)N[C@H]2CC[C@@H](NC(=O)c3nn(CCO)c4ccccc34)CC2)c1 [Example 10, Syn-1-(2-Hydroxy-ethyl)-1H-indazole-3-carboxylic acid(4-{[5-fluoro-2-(3-methylsulfanyl-phenoxy)-pyridine-3-carbonyl]-amino}-cyclohexyl)-amide] | 0.3
7 | Syn-1-Isopropyl-1H-benzoimidazole-4-carboxylic acid(4-{[5-fluoro-2-(3-methylsulfanyl-phenoxy)-pyridine-3-carbonyl]-amino}-cyclohexyl)-amide [Example 2] | 1
8 | Syn-1H-Indazole-3-carboxylic acid(4-{[5-fluoro-2-(3-methylsulfanyl-phenoxy) -pyridine-3-carbonyl]-amino}-cyclohexyl)-amide [Example 4] | 2
9 | Syn-2-Methyl-3H-benzoimidazole-4-carboxylic acid(4-{[5-fluoro-2-(3-methylsulfanyl-phenoxy)-pyridine-3-carbonyl]-amino}-cyclohexyl)-amide [Example 5] | 0.04
10 | Syn-Imidazo[1,2-a]pyridine-2-carboxylic acid(4-{[5-fluoro-2-(3-methylsulfanyl -phenoxy)-pyridine-3-carbonyl]-amino}-cyclohexyl)-amide [Example 3] | 0.1

Source: patent US7153870B2, “Nicotinamide derivatives useful as PDE4 inhibitors” (Pfizer Inc., priority 2003, dated 2006)
